# Results published in patent publication US11000537B2, “Composition comprising novel ginsenoside” (AMOREPACIFIC CORPORATION, priority 2018, dated 2021).
# Experiments:
# Type in all cases: cell-based
# 3T1-L1 adipocytes = assay: glucose uptake (glucose transport) in differentiated adipocytes; conditions: 10 μM, FIG. 13
# Description: 3T1-L1 adipocytes (ATCC) were purchased, and 10% bovine calf serum (Hyclone) and 1% penicillin/streptomycin (Sigma) were added to a Dulbecco's Modified Eagle's Medium (Sigma) and cultured in a 5% CO2 culture medium. In order to differentiate preadipocyte cells into adipocytes, a culture plate was filled with cells and cultured for 48 hours. The cells were then replaced in a DMEM medium to which 10% fetal bovine serum (FBS) (Hyclone), 0.5 mM 3-isobutyl-1-methylxanthine (Sigma), 1 μM dexamethasone (Sigma), 5 μg/ml insulin (Sigma), and 1% penicillin/streptomycin were added and cultured for another 48 hours. Thereafter, the cells were further cultured for 14 days while being replaced in a medium containing 10% FBS, 5 μg/ml insulin, and 1% penicillin/streptomycin at two-day intervals to obtain fully differentiated adipocytes. […] As a positive control for measuring glucose uptake in blood, Metformin (Sigma; 10 μM), which is used as a diabetic therapeutic agent, was used, and novel ginsenoside GS #10, which is an example of the present disclosure, isolated from Ginseng seed extract and ginsenosides GS #01-GS #06, which are comparative examples of the present disclosure, were treated with 10 μM each. In addition, both insulin-dependent/independent glucose transport capacity was measured by treating insulin together, which may promote glucose uptake.
# SH-SY5Y cells = assay: cytotoxicity, Cell Counting Kit (CCK)-8; conditions: 0.1, 1, 5, 10, 20 and 50 μM, FIG. 17
# Description: 10 μl of the CCK-8 reagent was added to the culturing SH-SY5Y cells (Dojindo, Md., USA) with reference to a 96-well plate, and left at 37° C. for 2 hours, and then the absorbance was measured at 450 nm. The cell viability was marked as a percentage (%) of the absolute optical density of each sample relative to the untreated sample. At this time, the concentration of the novel ginsenoside GS #10, which is an example of the present disclosure, contained in the medium in which the cells were cultured was 0.1, 1, 5, 10, 20, and 50 μM, respectively.
# [1] = system: SREBP1c (sterol-regulatory element binding protein 1c); assay: SREBP1c gene expression in HepG2 (qPCR); conditions: 24 hours
# Description: The hepatocyte cell line HepG2 purchased from the International Center for Biological Resources (ATCC) were placed in Dulbecco's Modified Eagle's Medium (Sigma) to which 10% fetal bovine serum (Hyclone) and 1% penicillin/streptomycin (Sigma) were added, and cultured in a 5% CO2 incubator. […] After 24 hours of treatment, cells were collected, RNA was extracted using Trizol™ reagent (Thermo Fisher Scientific), and cDNA was synthesized using RevertAid™ 1st strand cDNA synthesis kit (Thermo Fisher Scientific). Bio-Rad's CFX96 real-time quantitative PCR (qPCR) instrument was used to observe the expression of the genes SREBP1c (sterol-regulatory element binding protein 1c), ACC (acetyl-CoA carboxylase) and FAS (Fatty acid synthase), which induces fat synthesis or accumulation.
# [2] = system: HMG-CoA (3-hydroxy-3-methyl-glutaryl-coenzyme A) reductase; assay: HMG-CoA reductase gene expression in HepG2 (qPCR); conditions: 24 hours
# CD36 = CD36 adipocyte marker gene expression (qPCR)
# Description: The adipocyte cell 3T3-L1 purchased from the International Center for Biological Resources (ATCC) were placed in Dulbecco's Modified Eagle's Medium (Sigma) to which 10% fetal bovine serum (Hyclone) and 1% penicillin/streptomycin (Sigma) were added, and cultured in a 5% CO2 incubator. In order to differentiate preadipocytes into adipocytes, the cells were filled in a culture plate and cultured. After 48 hours, the cells were replaced with Dulbecco's modified eagle medium (DMEM) to which 10% of fetal bovine serum (Hyclone), 0.5 mM of 3-isobutyl-1-methylxanthine (Sigma), 1 μM of dexamethasone (Sigma), 5 μg/ml of insulin (Sigma), 1% of penicillin/streptomycin (Sigma) were added and further cultured for 48 hours. During 48 hours of culture, seven types of ginsenoside reagents (GS #01-GS #06, GS #10) extracted from Ginseng seeds were treated at 10 μM each to affect adipocyte differentiation. […]
# After the differentiation of adipocytes in the same manner as above, the expressions of PPARγ (Peroxisome proliferator-activated receptor gamma), aP2 (Adipocyte protein 2) and CD36 were observed as adipocyte marker genes. […] Bio-Rad's CFX96 real-time quantitative PCR (qPCR) instrument was used to quantify the expression levels of each gene. […]
# [3] = system: human umbilical vein endothelial cells (HUVEC); assay: nitric oxide (NO) production in vascular endothelial cells
# Text: Since nitric oxide is made by […] nitric oxide synthase (eNOS), in this experiment, it was confirmed whether the novel ginsenoside GS #10 of the example of the present disclosure can promote the production of nitric oxide through eNOS activity control in vascular endothelial cells. Specifically, the human umbilical vein endothelial cells (HUVEC) were purchased from the International Center for Biological Resources (ATCC) and cultured, and then the amount of nitric oxide (NO) produced by treating the novel ginsenoside GS #10 at a concentration of 1 to 10 μg/ml was measured.
structure (smiles),measurement,setting,value
"CC1(C)C(=O)CC[C@@]2(C)C1[C@@H](O[C@H]1OC(CO)[C@H](O)C(O)C1O[C@H]1OC(CO)[C@H](O)C(O)C1O)C[C@]1(C)C2C[C@@H](O)C2C([C@]3(C)CC[C@H](C(C)(C)O)O3)CC[C@]21C (stereo partly drawn) [GS #10, (20S,24R)-6-O-β-D-glucopyranosyl(1→2)-β-D-glucopyranoside-dammar-3-one-20,24-epoxy-6a,12b,25-triol]",glucose transport promotion,3T1-L1 adipocytes; combined with insulin (+insulin),the glucose transport is further increased as compared with the insulin-only treatment group
same,glucose transport promotion,3T1-L1 adipocytes; material-only treatment (−insulin),statistically significant glucose transport promotion
same,cytotoxicity (cell viability),SH-SY5Y cells,did not exhibit cytotoxicity up to 50 μM
same,SREBP1c expression inhibitory effect,"[1]; 10 μM, HepG2, FIG. 18",significantly higher expression inhibitory effect
same,SREBP1c expression inhibitory effect,"[1]; 1, 10 μM, compared with Rg1, Rg3, Rb1, FIG. 23",far superior in lipid metabolism inhibitory effect
same,expression of HMG-CoA reductase,"[2]; 10 μM, HepG2, FIG. 28",most excellent efficacy of inhibiting the expression
same,inhibition of cholesterol synthesis (HMG-CoA reductase expression),"[2]; 1 and 10 μM, compared with Rg1, Rg3, Rb1, FIG. 31",most effective in inhibiting cholesterol synthesis
same,"adipocyte differentiation inhibition, CD36 gene expression","CD36; 1 μM and 10 μM, compared with Rg1, Rg3, Rb1, FIG. 41",far superior in adipocyte differentiation inhibition
same,"adipocyte differentiation inhibition, CD36 gene expression","CD36; 10 μM, FIG. 37",more effective in inhibiting the adipocyte differentiation
same,NO production efficacy relative to ginsenoside Re (GS #03),"[3]; 10 μg/ml, HUVEC, FIG. 43",≥ 2 times
same,NO production-increasing effect,"[3]; 10 μg/ml, HUVEC, compared with GS #01 to GS #06, FIG. 43",significantly greater NO production-increasing effect
same,increased production of nitric oxide (NO),"[3]; 10 μg/ml, compared with Rg1, Rg3, Rb1, FIG. 46",far superior
same,nitric oxide (NO) production,"[3]; 1 to 10 μg/ml, HUVEC, FIG. 42",increase NO production in a concentration-dependent manner
